# Measurements published in patent US11530244B2, “Cyclic polypeptides for PCSK9 inhibition” (priority 2018, dated 2022).
# Like-named read-outs stand apart in the source and are kept apart here. Starred links: 1 amine or outer side, 2 acyl side, 3 side chain; linkers in the order of their positions; H or OH if unused. Positions of bridges follow the written chain, without caps; N, C: chain ends. Non-standard residues stand in square brackets, D forms with d. Residues, ends and D or L forms follow the SMILES beside them. X14 = CCOP(=O)(OCC)C(F)(F)c1ccc(C[C@H](N[*:1])C(=O)[*:2])cc1; X18 = O=C([C@@H](Cc1cccc(OCC=[*:3])c1)N[*:1])[*:2]; Trp(5-F) = N[C@@H](Cc1c[nH]c2ccc(F)cc12)C(=O)O; dPro(cis-4-NH2) = N[C@H]1CN[C@@H](C(=O)O)C1; mXylylene(5-F) = Fc1cc(C[*:1])cc(C[*:2])c1; Leu(3R-OH) = CC(C)[C@@H](O)[C@H](N)C(=O)O; Dip = N[C@H](C(=O)O)C(c1ccccc1)c1ccccc1; Lys(N3) = [N-]=[N+]=NCCCC[C@H](N)C(=O)O; Pro(4S-NH2) = N[C@@H]1CN[C@H](C(=O)O)C1; X36 = O=C([C@H](CC1=NC=NC1)N[*:1])[*:2]; X4 = O=C(CCSCc1cccc(CSCCN[*:1])c1)[*:2]; Orn(N3) = [N-]=[N+]=NCCC[C@H](N)C(=O)O; X23 = CC[C@@]1(C(=O)[*:2])CCCN1[*:1]; mXylylene = c1cc(C[*:1])cc(C[*:2])c1; X47 = O=C(O)CCCCC(N[*:1])C(=O)[*:2]; X39 = c1cc(CCSCN[*:2])cc(C[*:1])c1; Aad = N[C@@H](CCCC(=O)O)C(=O)O; AllylGly = C=CC[C@H](N)C(=O)O; αMeP = C[C@@]1(C(=O)O)CCCN1; Mpa = O=C(O)CCS
# Experiments:
# [1] = target: PCSK9 (Homo sapiens (Human), UniProt Q8NBP7); assay: PCSK9 Alexa FRET Standard assay (displacement of AlexaFluor647 tagged cyclic peptide Reagent A); assay type: binding; details: 0.5 nM PCSK9, 20 nM AF cyclic peptide Reagent A
# PCSK9, sequence (Q8NBP7 153-692): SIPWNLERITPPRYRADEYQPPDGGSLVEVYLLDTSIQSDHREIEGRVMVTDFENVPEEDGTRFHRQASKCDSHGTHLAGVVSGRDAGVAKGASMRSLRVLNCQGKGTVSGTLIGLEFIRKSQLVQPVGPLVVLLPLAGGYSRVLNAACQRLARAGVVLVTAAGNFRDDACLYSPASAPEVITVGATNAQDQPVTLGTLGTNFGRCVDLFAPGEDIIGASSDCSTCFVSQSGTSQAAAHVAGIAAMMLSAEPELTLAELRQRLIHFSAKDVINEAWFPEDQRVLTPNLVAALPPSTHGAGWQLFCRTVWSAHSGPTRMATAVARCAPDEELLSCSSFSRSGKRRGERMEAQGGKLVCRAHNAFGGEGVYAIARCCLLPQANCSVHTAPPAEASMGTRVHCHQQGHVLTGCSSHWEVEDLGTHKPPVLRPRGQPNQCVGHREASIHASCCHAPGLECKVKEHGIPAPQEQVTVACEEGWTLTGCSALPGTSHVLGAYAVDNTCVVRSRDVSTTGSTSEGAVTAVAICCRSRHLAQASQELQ
# Procedure, shortened: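 TR-FRET displacement: 0.5 nM biotinylated PCSK9 with 1.25 nM Strep-Eu and 20 nM AlexaFluor-tagged cyclic peptide (final) in 50 mM HEPES pH 7.4, 0.15 M NaCl, 5 mM CaCl2, 0.01% BSA, 0.01% P20, ≥2 h at room temperature. IC50 from sigmoidal fit, converted to Ki via peptide KD; falling Eu counts flagged false positives.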
# [2] = target: human PCSK9 / human LDLR EGFa domain interaction (Homo sapiens (Human), UniProt Q8NBP7); assay: TR-FRET assay of inhibition of the PCSK9-LDLR protein-protein interaction; assay type: binding
# human PCSK9 / human LDLR EGFa domain interaction, sequence (Q8NBP7 153-692): as above
# human PCSK9 / human LDLR EGFa domain interaction, sequence (Q8NBP7 31-152 partner): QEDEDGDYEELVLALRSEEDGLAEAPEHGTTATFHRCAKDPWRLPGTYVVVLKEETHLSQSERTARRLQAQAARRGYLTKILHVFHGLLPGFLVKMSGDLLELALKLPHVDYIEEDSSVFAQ
# Procedure, shortened: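 Half-maximal inhibitory concentrations came from 4-parameter fits of dose-response data. Proteins: biotinylated PCSK9, His-tagged LDLR EGFa, 20 nM each; labels 5 nM; 2 h, room temperature; buffer 50 mM HEPES, 150 mM NaCl, 5 mM CaCl2.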
# [3] = PCSK9 Alexa FRET Standard assay, read-out: IC50
# [4] = TR-FRET, 20 nM human PCSK9, 20 nM human LDLR EGFa domain, 2 hours room temperature, read-out: IC50
Structure (SMILES),"IC50 [1, 3] [nM]","IC50 [2, 4] [nM]","IC50 ([1]; IC50, PCSK9 Alexa FRET Standard assay) [nM]",IC50 [2] [nM]
CCOP(=O)(OCC)C(F)(F)c1ccc(C[C@@H]2NC(=O)[C@H]([C@@H](C)O)NC(=O)[C@@H]3CCCN3C(=O)[C@H](Cc3c[nH]c4ccc(F)cc34)NC(=O)[C@H](Cc3c[nH]c4ccc(F)cc34)NC(=O)[C@@H](C)NC(=O)[C@H](CCCCN)NC(=O)CCSCc3cccc(c3)CSCCNC(=O)[C@]3(C)CCCN3C2=O)cc1 [Compound 131] (cyclo(K[dA][Trp(5-F)][Trp(5-F)]PT[X14][αMeP][X4])),–,–,1000 to 12100,100 to 1000
CC[C@@]12CCCN1C(=O)[C@H](Cc1ccc(O)cc1)NC(=O)[C@H]([C@@H](C)O)NC(=O)[C@@H]1CCCN1C(=O)[C@H](Cc1c[nH]c3ccc(F)cc13)NC(=O)[C@H](Cc1c[nH]c3ccc(F)cc13)NC(=O)CNC(=O)[C@H](CCCCN)NC(=O)CCSCc1cccc(c1)CSC[C@@H](C(N)=O)NC2=O [Compound 045] ([Mpa]KG[Trp(5-F)][Trp(5-F)]PTY[X23]C-NH2; linker 1-10 via mXylylene),1000 to 12100,1000 to 12100,–,–
C[C@@H](O)[C@@H]1NC(=O)[C@@H]2CCCN2C(=O)[C@H](Cc2c[nH]c3ccc(F)cc23)NC(=O)[C@H](Cc2c[nH]c3ccc(F)cc23)NC(=O)CNC(=O)[C@H](CCCCN)NC(=O)CCSCc2cc(F)cc(c2)CSC[C@@H](C(N)=O)NC(=O)[C@]2(C)CCCN2C(=O)[C@H](Cc2ccc(O)cc2)NC1=O [Compound 043] ([Mpa]KG[Trp(5-F)][Trp(5-F)]PTY[αMeP]C-NH2; linker 1-10 via mXylylene(5-F)),100 to 1000,100 to 1000,–,–
CC(C)[C@@H](O)[C@@H]1NC(=O)[C@@H]2CCCN2C(=O)[C@H](Cc2c[nH]c3ccc(F)cc23)NC(=O)[C@H](Cc2c[nH]c3ccc(F)cc23)NC(=O)CNC(=O)[C@H](CCCCN)NC(=O)CCSCc2cccc(c2)CSC[C@@H](C(N)=O)NC(=O)[C@]2(C)CCCN2C(=O)[C@H](Cc2ccc(O)cc2)NC1=O [Compound 049] ([Mpa]KG[Trp(5-F)][Trp(5-F)]P[Leu(3R-OH)]Y[αMeP]C-NH2; linker 1-10 via mXylylene),100 to 1000,100 to 1000,–,–
COc1ccc(C[C@@H]2NC(=O)[C@H]([C@H](C)O)NC(=O)[C@@H]3C[C@H](F)CN3C(=O)[C@H](Cc3c[nH]c4ccc(F)cc34)NC(=O)[C@H](Cc3c[nH]c4ccc(F)cc34)NC(=O)[C@@H](C)NC(=O)[C@H](CCCCN)NC(=O)[C@H](NC(C)=O)CCc3cn(nn3)-c3ccc(cc3)C[C@@H](C(N)=O)NC(=O)[C@]3(C)CCCN3C2=O)cc1 [Compound 068],0.11 to 100,0.1 to 100,–,–

# Now from value to compound, other results behind:
"IC50 [1, 3] [nM]","IC50 [2, 4] [nM]",Structure (SMILES),"IC50 ([1]; IC50, PCSK9 Alexa FRET Standard assay) [nM]",IC50 [2] [nM]
100 to 1000,0.1 to 100,COc1ccc(C[C@@H]2NC(=O)C(CCCCC(=O)O)NC(=O)[C@@H]3C[C@H](N)CN3C(=O)[C@H](Cc3c[nH]c4ccc(F)cc34)NC(=O)[C@H](Cc3c[nH]c4ccc(F)cc34)NC(=O)[C@@H](C)NC(=O)[C@H](CCCN=[N+]=[N-])NC(=O)CCSCc3cccc(c3)CCSCNC(=O)[C@]3(C)CCCN3C2=O)cc1 (stereo partly drawn) [Compound 388] ([Mpa][Orn(N3)][dA][Trp(5-F)][Trp(5-F)][Pro(4S-NH2)][X47]Y(Me)[αMeP]; linker 1-C via X39),–,–
21000 to 50000,21000 to 50000,COc1ccc(C[C@@H]2NC(=O)[C@H](CCCC(=O)O)NC(=O)[C@H]3C[C@@H](N)CN3C(=O)[C@H](Cc3c[nH]c4ccc(F)cc34)NC(=O)[C@H](Cc3c[nH]c4ccc(F)cc34)NC(=O)[C@@H](C)NC(=O)[C@H](CCCCN=[N+]=[N-])NC(=O)CCSCc3cccc(c3)CCSCNC(=O)[C@]3(C)CCCN3C2=O)cc1 [Compound 408] ([Mpa][Lys(N3)][dA][Trp(5-F)][Trp(5-F)][dPro(cis-4-NH2)][Aad]Y(Me)[αMeP]; linker 1-C via X39),–,–
1000 to 12100,1000 to 12100,C[C@@H]1NC(=O)CCSCc2cccc(c2)CSCCNC(=O)[C@]2(C)CCCN2C(=O)[C@H](Cc2ccc(O)cc2)NC(=O)[C@H](C)NC(=O)[C@@H]2C/C=C\COc3cccc(c3)C[C@@H](NC(=O)[C@@H](C)NC1=O)C(=O)N[C@@H](Cc1c[nH]c3ccc(F)cc13)C(=O)N2 [Compound 498] (cyclo(AY[αMeP][X4]A[dA][X18][Trp(5-F)][AllylGly]); staple (Z) 7-9),–,–
100 to 1000,100 to 1000,COc1ccc(C[C@@H]2NC(=O)[C@@H]3CCCCCCO[C@H]4C[C@@H](C(=O)N3)N(C4)C(=O)[C@H](Cc3c[nH]c4ccc(F)cc34)NC(=O)[C@H](Cc3c[nH]c4ccc(F)cc34)NC(=O)[C@@H](C)NC(=O)[C@H](CCCCN)NC(=O)CCSCc3cccc(c3)CSC[C@@H](C(N)=O)NC(=O)[C@]3(C)CCCN3C2=O)cc1 [Compound 506],–,–
0.11 to 100,0.1 to 100,COc1ccc(C[C@@H]2NC(=O)[C@H](CC3=NC=NC3)NC(=O)[C@H](CC(=O)O)NC(=O)[C@H](Cc3c[nH]c4ccc(F)cc34)NC(=O)[C@H](C(c3ccccc3)c3ccccc3)NC(=O)[C@@H](C)NC(=O)[C@H](CCCCN)NC(=O)CCSCc3cccc(c3)CSCCNC(=O)[C@]3(C)CCCN3C2=O)cc1 [Compound 275] (cyclo(D[X36]Y(Me)[αMeP][X4]K[dA][Dip][Trp(5-F)])),–,–
